Assay: Release of AL-6598 from silicone dies of three sizes in PBS at 37° C.
Type: physicochemical
Details: silicone die containing 10% AL-6598, 10x10x1 mm, 10x5x1 mm and 5x5x1 mm, FIG. 8
Method: To study the effect of surface area on the release of prostaglandin from a silicone matrix, prostaglandin release from silicone dies of three different sizes was measured. The largest silicone die measured 10 mm×10 mm×1 mm. A ½ size device (10 mm×5 mm×1 mm) and a ¼ size device (5 mm×5 mm×1 mm) were also used in this study. Each silicone die contained 10% AL-6598, which is a DP class prostaglandin analogue. The silicone die were placed in phosphate buffered saline (PBS) at 37° C. and the amount of AL-6598 released was measured.

CC(C)OC(=O)COC/C=C\C[C@@H]1[C@@H](CC[C@@H](O)C2CCCCC2)[C@H](O)C[C@H]1Cl [AL-6598]
release of AL-6598 from silicone die (effect of surface area): dependent on the size of the silicone die with the larger surface area resulting in the more rapid drug release

Source: patent US8753666B2, “Punctal plugs and methods of delivering therapeutic agents” (Alcon Research, Ltd., priority 2007, dated 2014)
